Reference: ChEMBL document CHEMBL5303304, “EUbOPEN Chemogenomics Library - IncuCyte” (2023)

How the values were obtained:
Assay type in all cases: toxicity, cell-based
Fibroblast = test: Incucyte cell viability with human fibroblast; conditions: 10 µM, compound concentration 10 uM
HEK-293T = test: Incucyte cell viability with HEK293T; conditions: human, 10 µM, compound concentration 10 uM
U2OS = test: Incucyte cell viability with U2OS; conditions: human, 10 µM, compound concentration 10 uM
Note: unitless GR value; below 1 slowed growth and below 0 cell loss.

## CS(=O)(=O)NC(=O)CCC/C=C\C[C@H]1C(=O)C[C@@H](O)[C@@H]1/C=C/[C@@H](O)COc1ccccc1 [SULPROSTONE]
Fibroblast; 0 h, replicate number 1
  Growth Rate: -1
Fibroblast; 0 h, replicate number 2
  Growth Rate: -0.81
Fibroblast; 6 h, replicate number 1
  Growth Rate: 0.27
Fibroblast; 6 h, replicate number 2
  Growth Rate: 0.85
Fibroblast; 12 h, replicate number 1
  Growth Rate: 0.85
Fibroblast; 12 h, replicate number 2
  Growth Rate: 0.39
Fibroblast; 18 h, replicate number 1
  Growth Rate: 0.95
Fibroblast; 18 h, replicate number 2
  Growth Rate: 0.47
Fibroblast; 24 h, replicate number 1
  Growth Rate: 0.79
Fibroblast; 24 h, replicate number 2
  Growth Rate: 0.63
HEK-293T; 0 h, replicate number 1
  Growth Rate: 0.99
HEK-293T; 0 h, replicate number 2
  Growth Rate: 0.72
HEK-293T; 6 h, replicate number 2
  Growth Rate: 0.91
HEK-293T; 12 h, replicate number 1
  Growth Rate: 0.92
HEK-293T; 18 h, replicate number 1
  Growth Rate: 0.99
U2OS; 0 h, replicate number 1
  Growth Rate: 0.72
U2OS; 0 h, replicate number 2
  Growth Rate: 0.8
U2OS; 6 h, replicate number 1
  Growth Rate: 0.89
U2OS; 6 h, replicate number 2
  Growth Rate: 0.91
U2OS; 12 h, replicate number 1
  Growth Rate: 0.97
U2OS; 12 h, replicate number 2
  Growth Rate: 0.91
U2OS; 18 h, replicate number 1
  Growth Rate: 0.83
U2OS; 24 h, replicate number 1
  Growth Rate: 0.87
U2OS; 24 h, replicate number 2
  Growth Rate: 0.94

## CC(C)c1ccc(CC(=O)N[C@H](C)c2ccc(OCC(F)(F)F)cn2)cc1 [SUVECALTAMIDE]
Fibroblast; 0 h, replicate number 1
  Growth Rate: -0.55
Fibroblast; 6 h, replicate number 2
  Growth Rate: -1
Fibroblast; 12 h, replicate number 2
  Growth Rate: 0.94
Fibroblast; 18 h, replicate number 1
  Growth Rate: 0.11
Fibroblast; 18 h, replicate number 2
  Growth Rate: 0.84
Fibroblast; 24 h, replicate number 2
  Growth Rate: 0.74
HEK-293T; 0 h, replicate number 2
  Growth Rate: 0.85
HEK-293T; 6 h, replicate number 1
  Growth Rate: 0.16
HEK-293T; 12 h, replicate number 2
  Growth Rate: 0.87
HEK-293T; 18 h, replicate number 2
  Growth Rate: 0.95
HEK-293T; 24 h, replicate number 2
  Growth Rate: 0.8
U2OS; 0 h, replicate number 2
  Growth Rate: 0.67
U2OS; 6 h, replicate number 1
  Growth Rate: -0.32
U2OS; 6 h, replicate number 2
  Growth Rate: 0.56
U2OS; 12 h, replicate number 1
  Growth Rate: 0.59
U2OS; 12 h, replicate number 2
  Growth Rate: 0.89
U2OS; 18 h, replicate number 1
  Growth Rate: 0.76
U2OS; 18 h, replicate number 2
  Growth Rate: 0.86
U2OS; 24 h, replicate number 1
  Growth Rate: 0.78
U2OS; 24 h, replicate number 2
  Growth Rate: 0.9

## C=CC[C@@H]1/C=C(\C)C[C@H](C)C[C@H](OC)[C@H]2O[C@@](O)(C(=O)C(=O)N3CCCC[C@H]3C(=O)O[C@H](/C(C)=C/[C@@H]3CC[C@@H](O)[C@H](OC)C3)[C@H](C)[C@@H](O)CC1=O)[C@H](C)C[C@@H]2OC.O [TACROLIMUS]
Fibroblast; 0 h, replicate number 2
  Growth Rate: -0.85
Fibroblast; 6 h, replicate number 2
  Growth Rate: -0.26
Fibroblast; 12 h, replicate number 2
  Growth Rate: 0.85
Fibroblast; 18 h, replicate number 1
  Growth Rate: 0.96
HEK-293T; 0 h, replicate number 2
  Growth Rate: -0.12
HEK-293T; 6 h, replicate number 1
  Growth Rate: -0.24
HEK-293T; 6 h, replicate number 2
  Growth Rate: 0.77
HEK-293T; 12 h, replicate number 1
  Growth Rate: 0.41
HEK-293T; 12 h, replicate number 2
  Growth Rate: 0.99
HEK-293T; 18 h, replicate number 1
  Growth Rate: 0.78
HEK-293T; 18 h, replicate number 2
  Growth Rate: 0.82
HEK-293T; 24 h, replicate number 1
  Growth Rate: 0.87
HEK-293T; 24 h, replicate number 2
  Growth Rate: 0.99
U2OS; 0 h, replicate number 1
  Growth Rate: 0.59
U2OS; 0 h, replicate number 2
  Growth Rate: -1
U2OS; 6 h, replicate number 1
  Growth Rate: 0.95
U2OS; 6 h, replicate number 2
  Growth Rate: 0.5
U2OS; 12 h, replicate number 1
  Growth Rate: 0.75
U2OS; 12 h, replicate number 2
  Growth Rate: 0.7
U2OS; 18 h, replicate number 1
  Growth Rate: 0.81
U2OS; 18 h, replicate number 2
  Growth Rate: 0.87
U2OS; 24 h, replicate number 2
  Growth Rate: 0.85

## COc1cc(N2CCC(N3CCN(C)CC3)CC2)ccc1Nc1ncc(Cl)c(Nc2ccccc2S(=O)(=O)C(C)C)n1 [TAE-684]
Fibroblast; 6 h, replicate number 1
  Growth Rate: 0.37
Fibroblast; 6 h, replicate number 2
  Growth Rate: -0.99
Fibroblast; 12 h, replicate number 1
  Growth Rate: -0.98
Fibroblast; 12 h, replicate number 2
  Growth Rate: -0.28
Fibroblast; 18 h, replicate number 1
  Growth Rate: 0.29
Fibroblast; 18 h, replicate number 2
  Growth Rate: -0.21
Fibroblast; 24 h, replicate number 1
  Growth Rate: -0.12
Fibroblast; 24 h, replicate number 2
  Growth Rate: -0.32
HEK-293T; 6 h, replicate number 1
  Growth Rate: -0.99
HEK-293T; 6 h, replicate number 2
  Growth Rate: -0.4
HEK-293T; 12 h, replicate number 1
  Growth Rate: -0.93
HEK-293T; 12 h, replicate number 2
  Growth Rate: -0.16
HEK-293T; 18 h, replicate number 1
  Growth Rate: -0.8
HEK-293T; 18 h, replicate number 2
  Growth Rate: 0.06
HEK-293T; 24 h, replicate number 1
  Growth Rate: -0.72
HEK-293T; 24 h, replicate number 2
  Growth Rate: 0.17
U2OS; 0 h, replicate number 2
  Growth Rate: -0.18
U2OS; 6 h, replicate number 1
  Growth Rate: -0.18
U2OS; 6 h, replicate number 2
  Growth Rate: 0.84
U2OS; 12 h, replicate number 1
  Growth Rate: -0.09
U2OS; 12 h, replicate number 2
  Growth Rate: 0.29
U2OS; 18 h, replicate number 1
  Growth Rate: -0.06
U2OS; 18 h, replicate number 2
  Growth Rate: 0.27
U2OS; 24 h, replicate number 1
  Growth Rate: -0.15
U2OS; 24 h, replicate number 2
  Growth Rate: 0.07

## CCc1nc(-c2cccc(C)c2)c(-c2ccnc(NC(=O)c3ccccc3)c2)s1 [TAK-715]
Fibroblast; 0 h, replicate number 1
  Growth Rate: -0.56
Fibroblast; 6 h, replicate number 2
  Growth Rate: 0.83
HEK-293T; 6 h, replicate number 1
  Growth Rate: 0.48
HEK-293T; 6 h, replicate number 2
  Growth Rate: 0.96
HEK-293T; 24 h, replicate number 1
  Growth Rate: 0.92
HEK-293T; 24 h, replicate number 2
  Growth Rate: 0.81
U2OS; 0 h, replicate number 1
  Growth Rate: -1
U2OS; 0 h, replicate number 2
  Growth Rate: 0.2
U2OS; 6 h, replicate number 1
  Growth Rate: 0.63
U2OS; 12 h, replicate number 2
  Growth Rate: 0.79
U2OS; 18 h, replicate number 1
  Growth Rate: -0.35
U2OS; 18 h, replicate number 2
  Growth Rate: 0.87
U2OS; 24 h, replicate number 2
  Growth Rate: 0.92

## CC/C(=C(\c1ccccc1)c1ccc(OCCN(C)C)cc1)c1ccccc1.O=C(O)CC(O)(CC(=O)O)C(=O)O [TAMOXIFEN CITRATE]
Fibroblast; 6 h, replicate number 1
  Growth Rate: 0.1
Fibroblast; 6 h, replicate number 2
  Growth Rate: 0.32
Fibroblast; 12 h, replicate number 1
  Growth Rate: -0.13
Fibroblast; 12 h, replicate number 2
  Growth Rate: -0.01
Fibroblast; 18 h, replicate number 1
  Growth Rate: -0.15
Fibroblast; 18 h, replicate number 2
  Growth Rate: -0.19
Fibroblast; 24 h, replicate number 1
  Growth Rate: -0.08
Fibroblast; 24 h, replicate number 2
  Growth Rate: -0.21
HEK-293T; 0 h, replicate number 2
  Growth Rate: -0.98
HEK-293T; 6 h, replicate number 1
  Growth Rate: 0.14
HEK-293T; 6 h, replicate number 2
  Growth Rate: 0.13
HEK-293T; 12 h, replicate number 1
  Growth Rate: 0.4
HEK-293T; 12 h, replicate number 2
  Growth Rate: 0.48
HEK-293T; 18 h, replicate number 1
  Growth Rate: 0.48
HEK-293T; 18 h, replicate number 2
  Growth Rate: 0.45
HEK-293T; 24 h, replicate number 1
  Growth Rate: 0.56
HEK-293T; 24 h, replicate number 2
  Growth Rate: 0.52
U2OS; 0 h, replicate number 1
  Growth Rate: -0.22
U2OS; 0 h, replicate number 2
  Growth Rate: 0.89
U2OS; 6 h, replicate number 1
  Growth Rate: 0.66
U2OS; 6 h, replicate number 2
  Growth Rate: 1
U2OS; 12 h, replicate number 1
  Growth Rate: 0.8
U2OS; 12 h, replicate number 2
  Growth Rate: 0.93
U2OS; 18 h, replicate number 1
  Growth Rate: 0.84
U2OS; 18 h, replicate number 2
  Growth Rate: 0.88
U2OS; 24 h, replicate number 1
  Growth Rate: 0.91
U2OS; 24 h, replicate number 2
  Growth Rate: 0.95
